In US7105517B2 (priority 2001, dated 2006):
“And” between values parts separate entries of the source, which are not always exact repeats. Equal values may be shown once.

**Q.** With `Nc1nc(-c2ccccc2)c(-c2ccnc(Nc3cccc(CO)c3)n2)s1` as the compound, how does the melting point read?
**A.** 214 to 215 °C

**Q.** With `Nc1nc(-c2ccccc2)c(-c2ccnc(Nc3cccc(Cl)c3)n2)s1` as the compound, how does the melting point read?
**A.** 243 to 245 °C

**Q.** Which melting point does the source give for `CN1CCN(c2nc(-c3ccccc3)c(-c3ccnc(Nc4ccccc4)n3)s2)CC1` here?
**A.** 239 to 240 °C

**Q.** Which melting point does the source give for `COc1ccc(-c2cccc(Nc3nccc(-c4sc(N)nc4-c4ccccc4)n3)c2)cc1OC` here?
**A.** 236 to 237 °C

**Q.** Which melting point does the source give for `Nc1nc(-c2ccccc2)c(-c2ccnc(Nc3cccc(F)c3)n2)s1` here?
**A.** 243 to 245 °C

**Q.** With `Nc1nc(-c2ccccc2)c(-c2ccnc(Nc3ccccc3)n2)s1` as the compound, how does the melting point read?
**A.** 244 to 245 °C and 247 to 250 °C
